Test results: patent publication US8168619B1, “Hormonal composition based on a progestational agent and an oestrogen and use thereof” (Laboratoire Theramex, priority 1999, dated 2012)
Where two headings read alike, the source gives them in different places.

Key:
endometrium [1] = experiment: Continuous combined estradiol + nomegestrol acetate, 6 months: biopsy of the endometrium; assay type: in vivo, women
Experimental: (§1) A trial was carried out to study the effects on the endometrium of the continuous combined association of an oral estradiol dose equivalent to 1.5 mg and various doses of nomegestrol acetate.
(§2) This consisted in the treatment for 6 consecutive months of 179 women who had been menopausal for at least 3 years, with 1.5 mg per day of estradiol combined continuously with 4 different doses of nomegestrol acetate: 5 mg/day (n=47); 2.5 mg/day (n=42); 1.25 mg/day (n=43) and 0.625 mg/day (n=47).
(§3) The impact of these four associations on the endometrium was evaluated by recording the characteristics of genital bleeding, measuring the thickness of the endometrium by endovaginal echography before and at the end of the therapy, and by carrying out a biopsy of the endometrium before and at the end of the therapy.

endometrium [2] = experiment: Continuous combined estradiol + nomegestrol acetate, 6 months: endometrial thickness by endovaginal echography; assay type: in vivo, women; conditions: 6 months continuous
Experimental: as §1, §2, §3

menopausal women [3] = experiment: Sequential estrogen-progestative therapy: interval before periods after therapy is interrupted; assay type: in vivo; conditions: Day 13-22, with 30 μg ethinyl estradiol
Experimental: (§4) Menopausal women, whether naturally or as the result of surgery, were subjected to a sequential estrogen-progestative therapy. From Day 1 to Day 12 they received 30 μg of ethinyl estradiol and then, from Day 13 to Day 22, the same dose of ethinyl estradiol associated with different doses of nomegestrol acetate or chlormadinone acetate. The doses were as follows:
(§5) The number of women was between 2 and 11, depending on the group. There was then a therapeutic pause of 7 days followed by a second treatment cycle.
(§6) The parameters taken into account were as follows: • the interval before periods commenced after the therapy had been interrupted, following the first and second treatment cycles; • the histological appearance of the endometrium recovered in a biopsy carried out between Day 17 and Day 20 of the second cycle.

endometrium [4] = conditions: cited from earlier work
endometrial cells = experiment: Sequential estrogen-progestative therapy: histological appearance of endometrium biopsy; assay type: in vivo, women; conditions: for Number of mitoses (% of section in which mitoses were present), Glands: with 30 μg ethinyl estradiol, biopsy Day 17-20 of second cycle
Experimental: as §4, §5, §6

menopausal women [5] = experiment: Continuous combined estradiol + nomegestrol acetate, 6 months: genital bleeding; assay type: in vivo
Experimental: as §1, §2, §3

[6] = doses higher than those of the application, prolonged treatments; cited from earlier work
[7] = Dose producing an adequate delay in the onset of periods (literature); assay type: in vivo; conditions: NEUMANN; reference progestative norgestrel (=1)
Text: (§7) 2) Apart from the above, it would be reasonable to think that the doses claimed should be based on data from clinical pharmacology and/or clinical data previously published and commonly accepted. Now, if the doses defined as in the PLUNKETT patents are considered, it is easy to see that in most cases the active doses published already a long time ago, i.e. before the said patents were filed (NEUMANN, 1977) or more recently (KUHL, 1996), are very coherent but only rarely lie within the dose ranges claimed in the patents in the name of PLUNKETT (Table 2).

[8] = NEUMANN publication; cited from earlier work
[9] = NEUMANN publication; cited from earlier work; remark: listed apart in the source
endometrium [10] = experiment: Dose inducing transformation of the endometrium (literature); assay type: in vivo; conditions: NEUMANN; reference progestative norgestrel (=1)
Text: as §7

ovulation [11] = experiment: Dose inhibiting ovulation (literature); assay type: in vivo; conditions: NEUMANN; reference progestative norgestrel (=1)
Text: as §7

endometrium [12] = conditions: NEUMANN publication; cited from earlier work
[13] = Dose having a contraceptive effect (literature); assay type: in vivo; conditions: NEUMANN; reference progestative norgestrel (=1)
Text: as §7

ovulation [14] = conditions: NEUMANN publication; cited from earlier work
[15] = NOMAC 0.625 mg/day (n = 32) + estradiol (2 mg estradiol valerate)
[16] = NOMAC 0.625 mg/day + estradiol (2 mg estradiol valerate)
[17] = NOMAC 1.25 mg/day (n = 33) + estradiol (2 mg estradiol valerate)
[18] = NOMAC 1.25 mg/day + estradiol (2 mg estradiol valerate)
[19] = NOMAC 2.5 mg/day (n = 34) + estradiol (2 mg estradiol valerate)
[20] = NOMAC 2.5 mg/day + estradiol (2 mg estradiol valerate)
[21] = NOMAC 5 mg/day (n = 40) + estradiol (2 mg estradiol valerate)
[22] = NOMAC 5 mg/day + estradiol (2 mg estradiol valerate)

CC(=O)O[C@]1(C(C)=O)CC[C@H]2[C@@H]3C=C(C)C4=CC(=O)CC[C@@H]4[C@H]3CC[C@@]21C [Nomegestrol acetate, nomegestrol acetate]
Absence of endometrium, number of women (endometrium [1]; [15]): 5
Atrophic endometrium, number of women (endometrium [1]; [15]): 19
Polyps, number of women (endometrium [1]; [15]): 0
Secretory endometrium, number of women (endometrium [1]; [15]): 8
Absence of endometrium, percentage (endometrium [1]; [16]): (15.6) percentage
Atrophic endometrium, percentage (endometrium [1]; [16]): (59.4) percentage
Secretory endometrium, percentage (endometrium [1]; [16]): (25.0) percentage
Absence of endometrium, number of women (endometrium [1]; [17]): 10
Atrophic endometrium, number of women (endometrium [1]; [17]): 10
Polyps, number of women (endometrium [1]; [17]): 1
Secretory endometrium, number of women (endometrium [1]; [17]): 12
Absence of endometrium, percentage (endometrium [1]; [18]): (30.3) percentage
Atrophic endometrium, percentage (endometrium [1]; [18]): (30.3) percentage
Polyps, percentage (endometrium [1]; [18]): (3.0) percentage
Secretory endometrium, percentage (endometrium [1]; [18]): (36.4) percentage
Absence of endometrium, number of women (endometrium [1]; [19]): 3
Atrophic endometrium, number of women (endometrium [1]; [19]): 8
Polyps, number of women (endometrium [1]; [19]): 1
Secretory endometrium, number of women (endometrium [1]; [19]): 22
Absence of endometrium, percentage (endometrium [1]; [20]): (8.8) percentage
Atrophic endometrium, percentage (endometrium [1]; [20]): (23.5) percentage
Polyps, percentage (endometrium [1]; [20]): (2.9) percentage
Secretory endometrium, percentage (endometrium [1]; [20]): (64.7) percentage
Absence of endometrium, number of women (endometrium [1]; [21]): 3
Atrophic endometrium, number of women (endometrium [1]; [21]): 3
Polyps, number of women (endometrium [1]; [21]): 0
Secretory endometrium, number of women (endometrium [1]; [21]): 34
Absence of endometrium, percentage (endometrium [1]; [22]): (7.5) percentage
Atrophic endometrium, percentage (endometrium [1]; [22]): (7.5) percentage
Secretory endometrium, percentage (endometrium [1]; [22]): (85.0) percentage
Mean thickness at the end of the treatment (endometrium [2]; [16]): 3.18 mm
Mean thickness increase under the treatment (endometrium [2]; [16]): 0.39 mm
Mean thickness at the end of the treatment (endometrium [2]; [18]): 4.05 mm
Mean thickness increase under the treatment (endometrium [2]; [18]): 1.12 mm
Mean thickness at the end of the treatment (endometrium [2]; [20]): 3.93 mm
Mean thickness increase under the treatment (endometrium [2]; [20]): 1.36 mm
Mean thickness at the end of the treatment (endometrium [2]; [22]): 3.83 mm
Mean thickness increase under the treatment (endometrium [2]; NOMAC 5 mg/day + estradiol (2 mg estradiol valerate), listed as NOMAC): 1.57 mm
Mean thickness increase under the treatment (endometrium [2]; NOMAC 5 mg/day + estradiol (2 mg estradiol valerate), listed as nomegestrol acetate): 1.56 mm
Interval before the appearance of periods after the therapy is discontinued (menopausal women [3]; 0.1 mg/day): -0.5 ± 1.5 days
Interval before the appearance of periods after the therapy is discontinued (menopausal women [3]; 0.25 mg/day): -0.5 ± 0.5 days
Interval before the appearance of periods after the therapy is discontinued (menopausal women [3]; 0.5 mg/day): 1.5 ± 0.5 days
Interval before the appearance of periods after the therapy is discontinued (menopausal women [3]; 1.0 mg/day): 2.7 ± 0.2 days
Interval before the appearance of periods after the therapy is discontinued (menopausal women [3]; 2.5 mg/day): 3.2 ± 0.2 days
Interval before the appearance of periods after the therapy is discontinued (menopausal women [3]; 5 mg/day): 4.3 ± 0.4 days
Interval before the appearance of periods after the therapy is discontinued (menopausal women [3]; 10 mg/day): 3.8 ± 0.8 days
Endometrial hyperplasia (endometrium [4]; 5 mg/day for 12 days per cycle, with various estrogens, 150 women over 1 year (THOMAS et al. 1993)): makes it possible to prevent endometrial hyperplasia
Endometrial hyperplasia (endometrium [4]; 5 mg/day for 14 days per cycle, women treated with percutaneous estradiol (BERNARD et al. 1994)): absence of hyperplasia was confirmed
Number of mitoses (% of section in which mitoses were present), Glands (endometrial cells; 0.1 mg/day): 50%
Number of mitoses (% of section in which mitoses were present), Glands (endometrial cells; 0.25 mg/day): 50%
Number of mitoses (% of section in which mitoses were present), Glands (endometrial cells; 0.5 mg/day): 0%
Number of mitoses (% of section in which mitoses were present), Glands (endometrial cells; 1 mg/day): 0%
Number of mitoses (% of section in which mitoses were present), Glands (endometrial cells; 2 mg/day): 0%
Number of mitoses (% of section in which mitoses were present), Glands (endometrial cells; 2.5 mg/day): 0%
Number of mitoses (% of section in which mitoses were present), Glands (endometrial cells; 5 mg/day): 0%
Number of mitoses (% of section in which mitoses were present), Glands (endometrial cells; 10 mg/day): 30%
Dose at which mitosis no longer takes place in glandular cells (endometrial cells; sequential therapy with 30 μg ethinyl estradiol): ≥ 0.5 mg/day
Percentage of women who showed no genital bleeding at all throughout the therapy (menopausal women [5]; 0.625 mg/day + 1.5 mg/day estradiol): 42.5%
Percentage of women who showed no genital bleeding at all throughout the therapy (menopausal women [5]; 1.25 mg/day + 1.5 mg/day estradiol): 58.1%
Percentage of women who showed no genital bleeding at all throughout the therapy (menopausal women [5]; 2.5 mg/day + 1.5 mg/day estradiol): 52.4%
Percentage of women who showed no genital bleeding at all throughout the therapy (menopausal women [5]; 5 mg/day + 1.5 mg/day estradiol): 68.1%
Tolerance: effect on lipids profile, tolerance to glucides, arterial pressure, coagulation factors [6]: no effect on the lipids profile, the tolerance to glucides, the arterial pressure and the coagulation factors

C#CC1(O)CC[C@H]2[C@@H]3CCC4=CC(=O)CC[C@@H]4[C@H]3CC[C@@]21CC (stereo partly shown) [Norgestrel]
Dose ratio, Menstruation (2) [7]: 1.0
Dose necessary to have a contraceptive effect (4) [8]: 250 µg/day
Dose necessary to produce an adequate delay in the onset of periods (2), Menstruation [9]: 2000 µg/day
Dose ratio, Endometrium (1) (endometrium [10]): 1.0
Dose ratio, Ovulation (3) (ovulation [11]): 1.0
Dose necessary to induce transformation of the endometrium (1) (endometrium [12]): 1200 µg/day
Dose ratio, Contraception (4) [13]: 1.0
Dose necessary to inhibit ovulation (3) (ovulation [14]): 100 µg/day
